From article PMC11899342, “Novel Triazeneindole Antibiotics: Synthesis and Hit-to-Lead Optimization” (International Journal of Molecular Sciences, 2025)
pIC50: −log10 of the molar value. In brackets after ≈: the same amount, converted by molar mass. Like-named read-outs stand apart in the source and are kept apart here.

Legend:
MRSA clinical isolates = experiment: MIC by broth microdilution against multidrug-resistant MRSA clinical isolates; assay type: cell-based, Staphylococcus aureus; details: for MIC Range Against 8 MRSA Strains: 8 multidrug-resistant MRSA clinical isolates, tested 0.125-1 mg/L; for MIC: Staphylococcus aureus, MRSA
Procedure: Clinical MRSA isolates with multidrug resistance were obtained from the collection of the Research Institute of Antimicrobial Chemotherapy, Smolensk State Medical Academy.
The MICs were determined using a broth microdilution method according to [42]. Briefly, serial dilutions of the tested compounds in 50 µL of Mueller Hinton broth (BD) were prepared in 96-well microplates. The antibiotics vancomycin and linezolid (Sigma-Aldrich, St. Louis, MO, USA) were used as a positive control. Bacterial suspensions of the tested MRSA strains were prepared in the Mueller Hinton broth (BD) with a concentration 1 × 10^6 CFU/mL, and then 50 µL aliquots were added to the prepared microplates. The final concentrations of the antibiotics in the wells were 1, 0.5, 0.25, and 0.125 mg/L, for the tested compounds, and 2 mg/L for vancomycin and linezolid. Negative control (lack of bacterial cells) and growth control (lack of compound) wells were included in all plates. The microplates were incubated at 37 °C for 18 h. The growth was assessed visually after incubation, and the MIC was assumed as the lowest compound concentration at which a noticeable growth of the microorganisms was inhibited (no visible growth). All experiments were conducted in triplicate.

[1] = tested on: human embryonic fibroblasts (HEFs); experiment: MTT cytotoxicity on human embryonic fibroblasts; assay type: cell-based; details: 24 h, ND = non-toxic in tested concentrations (up to 50 mg/L); for IC50: Homo sapiens, Fibroblast
Procedure: (§1) The primary screening of 22 substances was performed on human embryonic fibroblasts (HEFs). […] The HepG2 cell line was obtained from the American Type Culture Collection (ATCC cat. # HB-8065). The primary HEF cells (normal human embryonic fibroblasts) were derived from human embryonic stem cells. The cells were cultured in DMEM/F12 (1:1) medium containing 10% fetal bovine serum (Invitrogen, Carlsbad, CA, USA) at 37 °C and 5% CO2, according to standard mammalian tissue culture protocols and sterile technique. […] The incubation time with the substance was 24 h for all substances and cell lines. Cell detachment by trypsin, centrifugation, and counting in a hemocytometer were performed 16 h before the addition of the substance. For correct counting of the HepG2 cells, the cell suspension was passed through a syringe needle to get rid of cell aggregates. The cells were placed in the wells of a 96-well plate. The number of cells was selected according to the properties of the cell line and the final optical density in the experiment. Fibroblasts and hepatocytes were used in the amount of 10 thousand cells per well in 100 μL of DMEM/F12 medium supplemented with 10% fetal bovine serum. The substances were added to 100 µL of medium in the wells so that the final concentrations were 50, 25, 12.5, 6.25, 3.125, and 1.62 mg/L. The final well volume was 200 µL. The medium containing fetal bovine serum, without added substances, was used as a negative control. After 24 h, excessive amounts of medium were discarded. A total of 30 µL of MTT solution (5 mg/mL in PBS) was added to each well. After the precipitation of formazan crystals (3 h incubation), they were dissolved using 100 μL of dimethyl sulfoxide. The optical density (OD) was measured at 570 nm using a microplate reader (Eppendorf). For every condition, the cell viabilities were assessed in at least three independent experiments for every cell culture. Cell survival was calculated using the following formula:(OD of treated cells − OD blank)/(OD of control cells − OD blank) × 100%, where OD blank represents the OD values in wells without cells but with the addition of the MTT and DMSO solutions. The results were presented in the form of cytotoxicity curves, and the graphs were also plotted in a Microsoft Excel program; the calculation of the IC50 half-maximal inhibition concentration values was performed in a GraphPad Prism 6.0 (GraphPad Software Inc., San Diego, CA, USA) program, based on the equations of the cytotoxicity curves.

[2] = tested on: HepG2 human liver carcinoma cells; experiment: MTT cytotoxicity (hepatotoxicity) on HepG2; assay type: cell-based; details: for IC50: Homo sapiens, HepG2, 24 h
Procedure: as §1

MRSA = experiment: Selectivity index (average IC50 on eukaryotic cells / average MIC on MRSA); assay type: cell-based, Staphylococcus aureus; details: average IC50 on eukaryotic cells divided by average MIC on MRSA
Procedure: The selectivity index was calculated for each compound as the average IC50 on eukaryotic cells divided by the average MIC on MRSA (Table 2).

[3] = Solubility in water by HPLC; assay type: physicochemical; details: for solubility at 5 min: water, kinetic from dmso stock
Procedure: The solubility of the compounds in water was assessed using HPLC analysis. Two 1.0 mg portions of the test compounds were dissolved in 10 μL of dimethyl sulfoxide; 1.0 mL of acetonitrile was added to one sample (standard), and 1.0 mL of water was added to the second sample (tested sample). Both vials were mixed in a shaker for 5 min, then centrifuged at 10,000 rpm for 5 min. The supernatants were collected and analyzed using Agilent 1290 Infinity (Agilent Technologies, Santa Clara, CA, USA) with a YMC-Triart C18 50 × 2.0 mm, 1.9 μm column. The concentration of the test compound in water was determined by comparing the peak areas of the standard (concentration 1.0 mg/mL) and the tested sample.

cytochrome P450 2C8 = target: T1, cytochrome P450 2C8 (Homo sapiens, UniProt P10632); experiment: Inhibition of cytochrome P450 isoform activity in human liver microsomes; assay type: in vitro ADME; details: N/A: no inhibition, tested 0.0046–10 μM
T1 construct: was investigated using human liver microsomes (XenoTech, USA); tissue XenoTech; host or cells: human liver microsomes
T1 sequence (P10632 1-490): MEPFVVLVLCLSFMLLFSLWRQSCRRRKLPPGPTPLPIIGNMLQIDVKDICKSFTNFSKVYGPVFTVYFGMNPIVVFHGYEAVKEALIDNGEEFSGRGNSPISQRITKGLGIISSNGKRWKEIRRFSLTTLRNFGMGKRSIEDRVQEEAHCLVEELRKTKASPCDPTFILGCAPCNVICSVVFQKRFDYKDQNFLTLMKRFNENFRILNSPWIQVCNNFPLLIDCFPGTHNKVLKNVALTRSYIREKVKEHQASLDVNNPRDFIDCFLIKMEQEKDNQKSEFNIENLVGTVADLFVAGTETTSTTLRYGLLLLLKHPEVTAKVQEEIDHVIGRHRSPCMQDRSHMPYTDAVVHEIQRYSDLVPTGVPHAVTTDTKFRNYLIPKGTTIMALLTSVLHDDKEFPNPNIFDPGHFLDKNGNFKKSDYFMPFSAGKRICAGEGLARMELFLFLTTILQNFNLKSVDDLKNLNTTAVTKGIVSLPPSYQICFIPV
Procedure: The effect of the tested compound on the activity of the main isoforms of human liver cytochrome P450 (1A2, 2C9, 2C19, 2D6, 3A4, 2C8) was investigated using human liver microsomes (XenoTech, USA) and their corresponding substrates: phenacetin, testosterone, tolbutamide, S-mephenytoin, dextromethorphan hydrobromide, and amodiaquine dihydrochloride dihydrate (Sigma-Aldrich, USA).
[…]. The reaction was stopped after 20 min by adding acetonitrile. The resulting metabolites were detected using UPLC–MS/MS. The calculation of the IC50 half-maximal inhibition concentration values was performed in the GraphPad Prism 6.0 (GraphPad Software Inc., USA) program, based on the equations of the experimental curves.

[4] = Figure 6, MRSA strain 2, read-out: MIC against 8 MRSA strains
[5] = Figure 6, MRSA strain 7, read-out: MIC against 8 MRSA strains
[6] = Figure 6, MRSA strain 8, read-out: MIC against 8 MRSA strains
[7] = Figure 6, MRSA strain 9, read-out: MIC against 8 MRSA strains
[8] = Figure 6, MRSA strain 13, read-out: MIC against 8 MRSA strains
[9] = Figure 6, MRSA strain 21, read-out: MIC against 8 MRSA strains
[10] = Figure 6, MRSA strain 48, read-out: MIC against 8 MRSA strains
[11] = Figure 6, MRSA strain 50, read-out: MIC against 8 MRSA strains
[12] = read-out: Solubility in water, mass concentration
[13] = read-out: Solubility in water, molar concentration

Row | SMILES | MIC Range Against 8 MRSA Strains (MRSA clinical isolates) | MIC (MRSA clinical isolates; 8 MRSA strains, read-out: lowest MIC values against most tested strains) | MIC (MRSA clinical isolates; [4]) | MIC (MRSA clinical isolates; [5]) | MIC (MRSA clinical isolates; [6]) | MIC (MRSA clinical isolates; [7]) | MIC (MRSA clinical isolates; [8]) | MIC (MRSA clinical isolates; [9]) | MIC (MRSA clinical isolates; [10]) | MIC (MRSA clinical isolates; [11]) | IC50 [1] | IC50 [2] | Selectivity Index (MRSA) | solubility at 5 min [3, 12] | solubility at 5 min [3, 13] | pIC50 (cytochrome P450 2C8) | IC50 HEF [1] | IC50 HepG2 ([2]; 24 h) | Solubility in water, mass concentration [3]
1 | CCOC(=O)c1[nH]c2cc(F)ccc2c1/N=N/N1CCC(C)CC1 [BX-SI045, Ethyl (E)-6-fluoro-3-((4-methylpiperidin-1-yl)diazenyl)-1H-indole-2-carboxylate] | 0.25 to 0.5 µg/mL | 0.25 µg/mL (≈ 0.752 µM) | 0.5 µg/mL (≈ 1.5 µM) | 0.5 µg/mL (≈ 1.5 µM) | 0.25 µg/mL (≈ 0.752 µM) | 0.25 µg/mL (≈ 0.752 µM) | 0.5 µg/mL (≈ 1.5 µM) | 0.25 µg/mL (≈ 0.752 µM) | 0.25 µg/mL (≈ 0.752 µM) | 0.25 µg/mL (≈ 0.752 µM) | 29 µg/mL (≈ 87.2 µM) | 22 µg/mL (≈ 66.2 µM) | 74 | 2.77 µg/mL | 10 µM | – | – | – | –
2 | CCOC(=O)c1[nH]c2cc(F)ccc2c1/N=N/N1CCN(C)CC1 [BX-SI035, Ethyl ester ethyl (E)-6-fluoro-3-((4-methylpiperazin-1-yl)diazenyl)-1H-indole-2-carboxylate] | 0.5 µg/mL (≈ 1.5 µM) | – | 0.5 µg/mL (≈ 1.5 µM) | 0.5 µg/mL (≈ 1.5 µM) | 0.5 µg/mL (≈ 1.5 µM) | 0.5 µg/mL (≈ 1.5 µM) | 0.5 µg/mL (≈ 1.5 µM) | 0.5 µg/mL (≈ 1.5 µM) | 0.5 µg/mL (≈ 1.5 µM) | 0.5 µg/mL (≈ 1.5 µM) | 20 µg/mL (≈ 60 µM) | 21 µg/mL (≈ 63 µM) | 41 | 11.7 µg/mL | 350 µM | – | – | – | –
3 | CCOC(=O)c1[nH]c2cc(F)ccc2c1/N=N/N1CCCN(C)CC1 [BX-SI039, Ethyl (E)-6-fluoro-3-((4-methyl-1,4-diazepan-1-yl)diazenyl)-1H-indole-2-carboxylate] | 0.5 to 1 µg/mL | – | 1 µg/mL (≈ 2.88 µM) | 1 µg/mL (≈ 2.88 µM) | 1 µg/mL (≈ 2.88 µM) | 1 µg/mL (≈ 2.88 µM) | 1 µg/mL (≈ 2.88 µM) | 0.5 µg/mL (≈ 1.44 µM) | 1 µg/mL (≈ 2.88 µM) | 0.5 µg/mL (≈ 1.44 µM) | 19 µg/mL (≈ 54.7 µM) | 16 µg/mL (≈ 46.1 µM) | 20 | 33.1 µg/mL | 90 µM | – | – | – | –
4 | CCOC(=O)c1[nH]c2cc(F)ccc2c1/N=N/N(C)CCc1ccccn1 [BX-SI048, Ethyl (E)-6-fluoro-3-(3-methyl-3-(2-(pyridin-2-yl)ethyl)triaz-1-en-1-yl)-1H-indole-2-carboxylate] | 0.5 to 1 µg/mL | – | 1 µg/mL (≈ 2.71 µM) | 0.5 µg/mL (≈ 1.35 µM) | 0.5 µg/mL (≈ 1.35 µM) | 1 µg/mL (≈ 2.71 µM) | 0.5 µg/mL (≈ 1.35 µM) | 0.5 µg/mL (≈ 1.35 µM) | 0.5 µg/mL (≈ 1.35 µM) | 0.5 µg/mL (≈ 1.35 µM) | 13 µg/mL (≈ 35.2 µM) | 22 µg/mL (≈ 59.6 µM) | 28 | 34.9 µg/mL | 90 µM | – | – | – | –
5 | O=c1c(O)c(-c2ccc(O)c(O)c2)oc2cc(O)cc(O)c12 [Quercetin, quercetin] | – | – | – | – | – | – | – | – | – | – | – | – | – | – | – | 5.58 | – | – | –
6 | CCOC(=O)c1[nH]c2cc(F)ccc2c1/N=N/N(C)CCN(C)C [BX-SI044, Ethyl (E)-3-(3-(2-(dimethylamino)ethyl)-3-methyltriaz-1-en-1-yl)-6-fluoro-1H-indole-2-carboxylate] | 0.25 to 1 µg/mL | – | – | – | – | – | – | – | – | – | – | – | 27 | – | – | – | 19 µg/mL (≈ 56.7 µM) | 13 µg/mL (≈ 38.8 µM) | 17.55 µg/mL (≈ 52.3 µM)
